Results reported in US12077503B2, “Substituted cyclic amides and their use as herbicides” (FMC CORPORATION, priority 2015, dated 2024).

Assays:
Format in all cases: in vivo
[1] = tested on: barnyardgrass (Echinochloa crus-galli); assay: Test G Pre-Emergence Protocol; conditions: Echinochloa crus-galli, pre-emergence, 312 h, evaluated after 13 days; for pest or weed control at 15.625 g/ha: 15.625 g ai/ha, read-out: Barnyard grass damage rating (100=total damage to plant; 0=no damage to plant); for pest or weed control at 62.5 g/ha: 62.5 g ai/ha, 100=total damage to plant, 0=no damage to plant, read-out: plant damage rating, Barnyardgrass; for pest or weed control at 250 g/ha: 250 g ai/ha, read-out: Barnyardgrass damage rating (100=total damage to plant; 0=no damage to plant)
Outline: (§1)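 Spraying took place one day after sowing, at 15.625, 62.5 or 250 g/ha, using an acetone/water (50:50) spray solution containing 0.5% Tween 20. Plants were kept under glasshouse conditions (24/16 °C, 14 h light, 65% humidity, watered twice daily), and injury was rated 0–100 at day 13.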

[2] = tested on: ivy-leaved morning glory (Ipomoea hederacea); assay: Test G Pre-Emergence Protocol; conditions: Ipomoea, pre-emergence, 312 h, evaluated after 13 days; for pest or weed control at 15.625 g/ha: 15.625 g ai/ha, read-out: Morning-glory, Ivy-leaved damage rating (100=total damage to plant; 0=no damage to plant); for pest or weed control at 62.5 g/ha: 62.5 g ai/ha, 100=total damage to plant, 0=no damage to plant, read-out: plant damage rating, Morningglory, Ivy-leaved; for pest or weed control at 250 g/ha: 250 g ai/ha, read-out: Morningglory, Ivy-leaved damage rating (100=total damage to plant; 0=no damage to plant)
Outline: as §1

[3] = tested on: redroot pigweed (Amaranthus retroflexus); assay: Test G Pre-Emergence Protocol; conditions: Amaranthus retroflexus, pre-emergence, 312 h, evaluated after 13 days; for pest or weed control at 15.625 g/ha: 15.625 g ai/ha; for pest or weed control at 15.625 g/ha / pest or weed control at 250 g/ha: read-out: Pigweed, Redroot damage rating (100=total damage to plant; 0=no damage to plant); for pest or weed control at 62.5 g/ha: 62.5 g ai/ha, 100=total damage to plant, 0=no damage to plant, read-out: plant damage rating, Pigweed, Redroot; for pest or weed control at 250 g/ha: 250 g ai/ha
Outline: as §1

[4] = tested on: velvetleaf (Abutilon theophrasti); assay: Test G Pre-Emergence Protocol; conditions: Abutilon theophrasti, pre-emergence, 312 h, evaluated after 13 days; for pest or weed control at 15.625 g/ha: 15.625 g ai/ha; for pest or weed control at 15.625 g/ha / pest or weed control at 250 g/ha: read-out: Velvetleaf damage rating (100=total damage to plant; 0=no damage to plant); for pest or weed control at 62.5 g/ha: 62.5 g ai/ha, 100=total damage to plant, 0=no damage to plant, read-out: plant damage rating, Velvetleaf; for pest or weed control at 250 g/ha: 250 g ai/ha
Outline: as §1

[5] = tested on: giant foxtail (Setaria faberi); assay: Test G Pre-Emergence Protocol; conditions: Setaria faberi, pre-emergence, 312 h, evaluated after 13 days; for pest or weed control at 15.625 g/ha: 15.625 g ai/ha; for pest or weed control at 15.625 g/ha / pest or weed control at 250 g/ha: read-out: Foxtail, Giant damage rating (100=total damage to plant; 0=no damage to plant); for pest or weed control at 62.5 g/ha: 62.5 g ai/ha, 100=total damage to plant, 0=no damage to plant, read-out: plant damage rating, Foxtail, Giant; for pest or weed control at 250 g/ha: 250 g ai/ha
Outline: as §1

corn (Zea mays) [6] = assay: Test G Pre-Emergence Protocol; conditions: Zea mays, pre-emergence, 312 h, evaluated after 13 days; for plant injury at 15.625 g/ha: 15.625 g ai/ha; for plant injury at 15.625 g/ha / plant injury at 250 g/ha: read-out: Corn damage rating (100=total damage to plant; 0=no damage to plant); for plant injury at 62.5 g/ha: 62.5 g ai/ha, 100=total damage to plant, 0=no damage to plant, read-out: plant damage rating, Corn; for plant injury at 250 g/ha: 250 g ai/ha
Outline: as §1

[7] = tested on: barnyardgrass (Echinochloa crus-galli); assay: Test G Post-Emergence Protocol; conditions: Echinochloa crus-galli, post-emergence, 312 h; for pest or weed control at 15.625 g/ha: 15.625 g ai/ha, evaluated after 13 days (100=total damage to plant; 0=no damage to plant), read-out: Barnyardgrass damage rating; for pest or weed control at 62.5 g/ha: 62.5 g ai/ha, read-out: Barnyardgrass damage rating (100=total damage to plant; 0=no damage to plant); for pest or weed control at 62.5 g/ha / pest or weed control at 250 g/ha: evaluated after 13 days; for pest or weed control at 250 g/ha: 250 g ai/ha, read-out: damage to plant, Barnyardgrass (100=total damage to plant; 0=no damage to plant)
Outline: (§2)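 Sow in soil; grow 8 d (24/16 °C, 14 h light, 65% humidity); spray 15.625/62.5/250 g/ha in acetone:water 50:50 + 0.5% Tween 20; grow on, water twice daily; score damage 0–100 at 13 d.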

[8] = tested on: ivy-leaved morning glory (Ipomoea hederacea); assay: Test G Post-Emergence Protocol; conditions: Ipomoea, post-emergence, 312 h; for pest or weed control at 15.625 g/ha: 15.625 g ai/ha, evaluated after 13 days (100=total damage to plant; 0=no damage to plant), read-out: Morningglory, Ivy-leaved damage rating; for pest or weed control at 62.5 g/ha: 62.5 g ai/ha, read-out: Morningglory, Ivy-leaved damage rating (100=total damage to plant; 0=no damage to plant); for pest or weed control at 62.5 g/ha / pest or weed control at 250 g/ha: evaluated after 13 days; for pest or weed control at 250 g/ha: 250 g ai/ha, read-out: damage to plant, Morningglory, Ivy-leaved (100=total damage to plant; 0=no damage to plant)
Outline: as §2

[9] = tested on: redroot pigweed (Amaranthus retroflexus); assay: Test G Post-Emergence Protocol; conditions: Amaranthus retroflexus, post-emergence, 312 h; for pest or weed control at 15.625 g/ha: 15.625 g ai/ha, evaluated after 13 days (100=total damage to plant; 0=no damage to plant), read-out: Pigweed, Redroot damage rating; for pest or weed control at 62.5 g/ha: 62.5 g ai/ha, read-out: Pigweed, Redroot damage rating (100=total damage to plant; 0=no damage to plant); for pest or weed control at 62.5 g/ha / pest or weed control at 250 g/ha: evaluated after 13 days; for pest or weed control at 250 g/ha: 250 g ai/ha, read-out: damage to plant, Pigweed, Redroot (100=total damage to plant; 0=no damage to plant)
Outline: as §2

[10] = tested on: velvetleaf (Abutilon theophrasti); assay: Test G Post-Emergence Protocol; conditions: Abutilon theophrasti, post-emergence, 312 h; for pest or weed control at 15.625 g/ha: 15.625 g ai/ha, evaluated after 13 days (100=total damage to plant; 0=no damage to plant), read-out: Velvetleaf damage rating; for pest or weed control at 62.5 g/ha: 62.5 g ai/ha, read-out: Velvetleaf damage rating (100=total damage to plant; 0=no damage to plant); for pest or weed control at 62.5 g/ha / pest or weed control at 250 g/ha: evaluated after 13 days; for pest or weed control at 250 g/ha: 250 g ai/ha, read-out: damage to plant, Velvetleaf (100=total damage to plant; 0=no damage to plant)
Outline: as §2

[11] = tested on: giant foxtail (Setaria faberi); assay: Test G Post-Emergence Protocol; conditions: Setaria faberi, post-emergence, 312 h; for pest or weed control at 15.625 g/ha: 15.625 g ai/ha, evaluated after 13 days (100=total damage to plant; 0=no damage to plant), read-out: Foxtail, Giant damage rating; for pest or weed control at 62.5 g/ha: 62.5 g ai/ha, read-out: Foxtail, Giant damage rating (100=total damage to plant; 0=no damage to plant); for pest or weed control at 62.5 g/ha / pest or weed control at 250 g/ha: evaluated after 13 days; for pest or weed control at 250 g/ha: 250 g ai/ha, read-out: damage to plant, Foxtail, Giant (100=total damage to plant; 0=no damage to plant)
Outline: as §2

corn (Zea mays) [12] = assay: Test G Post-Emergence Protocol; conditions: Zea mays, post-emergence, 312 h; for plant injury at 15.625 g/ha: 15.625 g ai/ha, evaluated after 13 days (100=total damage to plant; 0=no damage to plant), read-out: Corn damage rating; for plant injury at 62.5 g/ha: 62.5 g ai/ha, read-out: Corn damage rating (100=total damage to plant; 0=no damage to plant); for plant injury at 62.5 g/ha / plant injury at 250 g/ha: evaluated after 13 days; for plant injury at 250 g/ha: 250 g ai/ha, read-out: damage to plant, Corn (100=total damage to plant; 0=no damage to plant)
Outline: as §2

Compound	pest or weed control at 15.625 g/ha [1] [%]	pest or weed control at 62.5 g/ha [1] [%]	pest or weed control at 250 g/ha [1] [%]	pest or weed control at 15.625 g/ha [2] [%]	pest or weed control at 62.5 g/ha [2] [%]	pest or weed control at 250 g/ha [2] [%]	pest or weed control at 15.625 g/ha [3] [%]	pest or weed control at 62.5 g/ha [3] [%]	pest or weed control at 250 g/ha [3] [%]	pest or weed control at 15.625 g/ha [4] [%]	pest or weed control at 62.5 g/ha [4] [%]	pest or weed control at 250 g/ha [4] [%]	pest or weed control at 15.625 g/ha [5] [%]	pest or weed control at 62.5 g/ha [5] [%]	pest or weed control at 250 g/ha [5] [%]	plant injury at 15.625 g/ha (corn (Zea mays) [6]) [%]	plant injury at 62.5 g/ha (corn (Zea mays) [6]) [%]	plant injury at 250 g/ha (corn (Zea mays) [6]) [%]	pest or weed control at 15.625 g/ha [7] [%]	pest or weed control at 62.5 g/ha [7] [%]	further results
CN1C[C@@H](c2ccc(C(F)(F)F)cc2)[C@H](C(=O)Nc2ncc(Cl)s2)C1=O (racemic) [Compound 1569]	0	0	0	0	0	0	0	0	0	0	0	0	0	0	0	0	0	0	0	10	pest or weed control at 250 g/ha [7]: 20%; pest or weed control at 15.625 g/ha [8]: 0%; pest or weed control at 62.5 g/ha [8]: 0%; pest or weed control at 250 g/ha [8]: 0%; pest or weed control at 15.625 g/ha [9]: 0%; pest or weed control at 62.5 g/ha [9]: 0%; pest or weed control at 250 g/ha [9]: 0%; pest or weed control at 15.625 g/ha [10]: 0%; pest or weed control at 62.5 g/ha [10]: 0%; pest or weed control at 250 g/ha [10]: 0%; pest or weed control at 15.625 g/ha [11]: 0%; pest or weed control at 62.5 g/ha [11]: 0%; pest or weed control at 250 g/ha [11]: 0%; plant injury at 15.625 g/ha (corn (Zea mays) [12]): 0%; plant injury at 62.5 g/ha (corn (Zea mays) [12]): 0%; plant injury at 250 g/ha (corn (Zea mays) [12]): 0%
CN1C[C@@H](c2ccc(C(F)(F)F)cc2)[C@H](C(=O)Nc2ccnc(Cl)c2)C1=O (racemic) [Compound 1571]	0	0	0	0	0	0	0	0	0	0	0	0	0	0	20	0	0	0	0	0	pest or weed control at 250 g/ha [7]: 0%; pest or weed control at 15.625 g/ha [8]: 0%; pest or weed control at 62.5 g/ha [8]: 0%; pest or weed control at 250 g/ha [8]: 0%; pest or weed control at 15.625 g/ha [9]: 0%; pest or weed control at 62.5 g/ha [9]: 0%; pest or weed control at 250 g/ha [9]: 0%; pest or weed control at 15.625 g/ha [10]: 0%; pest or weed control at 62.5 g/ha [10]: 0%; pest or weed control at 250 g/ha [10]: 0%; pest or weed control at 15.625 g/ha [11]: 0%; pest or weed control at 62.5 g/ha [11]: 0%; pest or weed control at 250 g/ha [11]: 0%; plant injury at 15.625 g/ha (corn (Zea mays) [12]): 0%; plant injury at 62.5 g/ha (corn (Zea mays) [12]): 0%; plant injury at 250 g/ha (corn (Zea mays) [12]): 0%
CN1C[C@@H](c2ccc(C(F)(F)F)cc2)[C@H](C(=O)Nc2ccn[nH]2)C1=O (racemic) [Compound 1573]	0	0	0	0	0	0	0	0	0	0	0	0	0	0	0	0	0	0	0	0	pest or weed control at 250 g/ha [7]: 0%; pest or weed control at 15.625 g/ha [8]: 0%; pest or weed control at 62.5 g/ha [8]: 0%; pest or weed control at 250 g/ha [8]: 0%; pest or weed control at 15.625 g/ha [9]: 0%; pest or weed control at 62.5 g/ha [9]: 0%; pest or weed control at 250 g/ha [9]: 0%; pest or weed control at 15.625 g/ha [10]: 0%; pest or weed control at 62.5 g/ha [10]: 0%; pest or weed control at 250 g/ha [10]: 0%; pest or weed control at 15.625 g/ha [11]: 0%; pest or weed control at 62.5 g/ha [11]: 0%; pest or weed control at 250 g/ha [11]: 0%; plant injury at 15.625 g/ha (corn (Zea mays) [12]): 0%; plant injury at 62.5 g/ha (corn (Zea mays) [12]): 0%; plant injury at 250 g/ha (corn (Zea mays) [12]): 0%
